Like-named read-outs stand apart in the source and are kept apart here.
How the values were obtained:
[1] = tested on: Staphylococcus aureus ATCC 6538, Klebsiella pneumoniae ATCC 8308, Bacillus subtillus ATCC 8473, Escherichia coli ATCC 11229; experiment: Biocidal activity against standard aerobic bacterial strains in 0.85% NaCl solution, live count by serial dilution; assay type: cell-based; details: biocide alone; average for four standard aerobic bacteria; ~10^7 CFU/mL, 37° C.
Protocol: (§1) A sterile 0.85% NaCl solution is contaminated with bacterial inoculums at final bacterial concentrations of ˜10^7 CFU/mL. At day zero, either oxazolidine compound (BIOBAN™ CS-1135, 78% 4,4-dimethyloxazolidine in water, The Dow Chemical Company, or BIOBAN™ CS-1246, 97.5% 7-ethylbicyclooxazolidine in water, The Dow Chemical Company), THPS (AQUCAR™ THPS 75, 75% THPS in water, The Dow Chemical Company), or a combination of oxazolidine compound and THPS is added and the solution mixed well to provide a desired final concentration. […]
The testing protocol described above is used for the standard bacterial strains Staphylococcus aureus ATCC 6538, Klebsiella pneumoniae ATCC 8308, Bacillus subtillus ATCC 8473, Escherichia coli ATCC 11229.
(§2) The testing protocol described in Example 1 is used for aerobic bacteria and anaerobic sulfate reducing bacteria.

[2] = tested on: oil/gas field-isolated sulfate reducing bacteria (SRB); experiment: Biocidal activity against oil/gas field-isolated sulfate reducing bacteria under anaerobic environment in deaerated salt solution; assay type: cell-based
Protocol: as §1
The protocol used to test against oil/gas field-isolated sulfate reducing bacteria (SRB) is performed as described above, but under anaerobic environment (Bactron III anaerobic chamber) and using a deaerated sterile salt solution (1.2490 g NaCl, 2.9290 g NaHCO3, 0.1910 g Na2CO3, 0.0060 g Na2SO4, 0.033 g CaCl2, and 0.0590 g MgCl2.6H2O in 1 L water) instead of 0.85% NaCl solution.
as §2

[3] = biocide alone, field anaerobic SRB, anaerobic chamber

With `CC1(C)COCN1` [4,4-dimethyloxazolidine] the “Concentration required to achieve at least 3 log bacterial reduction in 1 hr” value [1] was 272.04 ppm, active and the “Concentration required to achieve at least 3 log bacterial reduction in 1 hr” value [2, 3] was 1000 ppm, active.
For `CCC12COCN1COC2` [7-ethylbicyclooxazolidine, 5-ethyl-1-aza-3,7-dioxabicyclo[3.3.0]octane], the “Concentration required to achieve at least 3 log bacterial reduction in 1 hr” value [1] was 272.04 ppm, active and the “Concentration required to achieve at least 3 log bacterial reduction in 1 hr” value [2, 3] was >1000 ppm, active.
In the case of “tetrakis(hydroxymethyl)phosphonium sulfate [THPS]”, the “Concentration required to achieve at least 3 log bacterial reduction in 1 hr” value [1] is reported as 44.49 ppm, active and the “Concentration required to achieve at least 3 log bacterial reduction in 1 hr” value [2] is reported as 33.35 ppm, active.
